Measurements as given in patent US4997849A, “Microbial transformation of simvastatin” (Merck & Co., Inc., priority 1989, dated 1991).
Values belong to the molecule of their own block, whether it stands above or below them.

How the values were obtained:
HMG-CoA reductase [1] = biological target: T1, HMG-CoA reductase (Homo sapiens, UniProt P04035); conditions: relative to lovastatin; cited from earlier work
T1 sequence (P04035 1-888): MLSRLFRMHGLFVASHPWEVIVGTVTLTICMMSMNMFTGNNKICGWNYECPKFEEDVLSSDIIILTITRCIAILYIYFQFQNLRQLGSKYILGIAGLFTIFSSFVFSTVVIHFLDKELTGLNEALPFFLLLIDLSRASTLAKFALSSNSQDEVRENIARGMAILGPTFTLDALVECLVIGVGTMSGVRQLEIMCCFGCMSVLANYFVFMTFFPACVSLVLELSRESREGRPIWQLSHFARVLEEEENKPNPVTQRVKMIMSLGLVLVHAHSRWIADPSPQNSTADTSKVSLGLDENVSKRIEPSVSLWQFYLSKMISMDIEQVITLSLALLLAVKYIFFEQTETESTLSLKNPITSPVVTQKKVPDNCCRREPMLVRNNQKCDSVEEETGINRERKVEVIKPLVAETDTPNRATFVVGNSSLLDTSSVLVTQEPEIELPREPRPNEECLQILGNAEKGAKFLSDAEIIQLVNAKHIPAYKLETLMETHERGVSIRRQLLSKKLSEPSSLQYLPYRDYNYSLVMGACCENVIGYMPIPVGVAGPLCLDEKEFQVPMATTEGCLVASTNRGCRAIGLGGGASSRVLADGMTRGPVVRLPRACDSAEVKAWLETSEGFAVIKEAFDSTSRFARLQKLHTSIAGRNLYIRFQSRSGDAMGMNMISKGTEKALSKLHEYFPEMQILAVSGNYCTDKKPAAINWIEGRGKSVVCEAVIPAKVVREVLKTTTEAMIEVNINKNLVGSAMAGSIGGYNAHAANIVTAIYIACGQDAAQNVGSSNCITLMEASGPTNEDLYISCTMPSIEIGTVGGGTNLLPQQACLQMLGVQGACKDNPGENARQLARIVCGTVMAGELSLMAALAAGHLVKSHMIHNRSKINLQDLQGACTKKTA

[2] = reversion of free dihydroxy acid to parent lactone on standing; type: physicochemical; conditions: on standing at room temperature
Experimental: The sodium salt of the compound II from Example 8 is dissolved in 2 ml of ethanol-water (1:1; v:v) and added to 10 ml of 0.1N hydrochloric acid from which the dihydroxy acid is extracted with ethyl acetate. The organic extract is washed once with water, dried (Na2 SO4), and evaporated in vacuo with a bath temperature not exceeding 30° C.

HMG-CoA reductase [3] = biological target: T2, HMG-CoA reductase (Rattus norvegicus, UniProt P51639); experiment: intrinsic HMG-CoA reductase inhibition activity, in vitro protocol of J. Med. Chem., 1985, 28, page 347; type: biochemical; conditions: potassium salt
T2 construct: from tissue
T2 sequence (P51639 1-887): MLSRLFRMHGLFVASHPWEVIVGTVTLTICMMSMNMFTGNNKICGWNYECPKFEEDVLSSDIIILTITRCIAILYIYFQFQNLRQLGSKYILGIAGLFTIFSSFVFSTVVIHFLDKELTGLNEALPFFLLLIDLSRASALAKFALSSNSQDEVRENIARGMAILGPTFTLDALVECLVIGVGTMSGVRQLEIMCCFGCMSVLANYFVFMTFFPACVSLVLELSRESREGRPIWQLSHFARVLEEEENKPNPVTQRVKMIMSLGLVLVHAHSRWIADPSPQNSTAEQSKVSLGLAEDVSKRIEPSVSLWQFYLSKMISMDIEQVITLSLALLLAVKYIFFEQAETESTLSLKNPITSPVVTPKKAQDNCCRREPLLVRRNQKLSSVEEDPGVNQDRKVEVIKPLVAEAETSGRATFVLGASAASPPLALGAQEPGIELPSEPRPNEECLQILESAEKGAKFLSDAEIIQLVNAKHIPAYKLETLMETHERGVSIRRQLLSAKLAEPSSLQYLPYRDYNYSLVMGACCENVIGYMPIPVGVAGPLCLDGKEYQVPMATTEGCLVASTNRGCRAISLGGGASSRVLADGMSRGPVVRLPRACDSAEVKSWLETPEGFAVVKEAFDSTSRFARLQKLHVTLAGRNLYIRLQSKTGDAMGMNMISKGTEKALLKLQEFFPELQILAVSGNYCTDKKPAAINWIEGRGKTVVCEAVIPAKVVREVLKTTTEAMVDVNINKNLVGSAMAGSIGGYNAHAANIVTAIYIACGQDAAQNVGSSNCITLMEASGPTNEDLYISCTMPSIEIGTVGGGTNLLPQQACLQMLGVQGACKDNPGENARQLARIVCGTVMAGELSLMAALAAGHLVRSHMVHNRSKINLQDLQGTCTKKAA
Experimental: The intrinsic HMG-CoA reductase inhibition activity of the claimed compounds is measured in the in vitro protocol described in J. Med. Chem., 1985, 28, page 347.

SMILES: CCC(C)(C)C(=O)O[C@H]1C[C@@H](C)C=C2C=C[C@H](C)[C@H](CC[C@@H]3C[C@@H](O)CC(=O)O3)[C@H]21 [simvastatin]
- HMG-CoA reductase inhibitor potency compared with lovastatin (HMG-CoA reductase [1]): even more potent HMG-CoA reductase inhibitor than lovastatin

SMILES: CC1C=Cc2cc(CO)ccc2C1CC[C@@H](O)C[C@@H](O)CC(=O)O (stereo partly drawn) [dihydroxy acid derivative]
- reversion to the corresponding parent lactone [2]: slowly reverts to the corresponding parent lactone on standing at room temperature

- IC50 (HMG-CoA reductase [3]): 0.897 µM
SMILES: CC1C=Cc2cc(CO)ccc2C1CC[C@@H](O)C[C@@H](O)CC(=O)O (stereo partly drawn)
